In paper PMC8709388, “In Search of Small Molecules That Selectively Inhibit MBOAT4” (Molecules, 2021):

Target: T1, mouse GOAT (Mus musculus, UniProt P0C7A3)
T1 construct: made in house; host or cells: sf9 insect cells (baculovirus, pFastBac1-mouseGOAT); total membrane fraction, not purified
T1 sequence (P0C7A3 1-435): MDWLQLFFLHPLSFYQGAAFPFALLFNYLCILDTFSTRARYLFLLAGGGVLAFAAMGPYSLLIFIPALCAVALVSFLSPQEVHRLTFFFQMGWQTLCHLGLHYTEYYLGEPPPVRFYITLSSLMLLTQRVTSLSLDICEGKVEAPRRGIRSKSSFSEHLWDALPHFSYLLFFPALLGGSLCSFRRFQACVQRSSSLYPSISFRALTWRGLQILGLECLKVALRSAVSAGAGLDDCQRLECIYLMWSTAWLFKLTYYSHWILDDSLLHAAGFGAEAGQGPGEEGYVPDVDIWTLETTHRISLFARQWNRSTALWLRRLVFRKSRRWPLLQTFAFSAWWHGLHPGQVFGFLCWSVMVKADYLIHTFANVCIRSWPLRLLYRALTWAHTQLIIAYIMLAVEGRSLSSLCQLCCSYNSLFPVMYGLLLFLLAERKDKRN
Assay: Acyltransferase assay: inhibition of proghrelin octanoylation by GOAT in sf9 membrane fractions
Type: biochemical
Conditions: for IC50: sf9 membranes containing mouse GOAT, [3H]octanoyl CoA, proghrelin8His, read-out: IC50 (GOAT, membrane fraction, in-house); for GOAT inhibition in vitro (in words): membrane fractions
Method: pFastBac1-mouseGOAT and pGEX-GST-proGhrelin8His plasmid encoding for mouse proghrelin, fused to GST with TEV cleavage site to release proghrelin moiety, was a kind gift from the Brown and Goldstein laboratory. The BL21Gold E. coli chemically competent cells were transformed with the pGEX-GST-proGhrelin8His plasmid and selected on agar plates with ampicillin. A few colonies were used to inoculate 50 mL LB, and cultures were grown overnight at 37 °C. The next morning, 10 mL of overnight culture was used to inoculate 1L LB. A total of 4 flasks with 1L LB each were inoculated with 10 mL of the overnight culture, and bacterial cultures were grown at 37 °C until they reached OD600 ~ 0.6. The cultures were chilled on ice for 30 min and then 0.25 mM of IPTG was added to each culture. The cultures were then moved back to a shaker set to 18 °C and incubated overnight. Cells were harvested and resuspended in 200 mL buffer containing 25 mM Tris-HCl pH 8.0, 150 mM NaCl, 1 mM EDTA and 0.5 mg/mL lysozyme. The cell suspension was sonicated, and cell debris was removed by centrifugation. The soluble fraction was passed through glutathione resin by gravity. The resin was washed with 75 mL of lysis buffer without lysozyme. The GST-proGhrelin8His protein was eluted with lysis buffer without lysozyme, supplemented with 15 mM reduced glutathione, GSH. About 50 mg of target protein, as evaluated by SDS-PAGE, was eluted. The eluate was supplemented with 1 mM DTT and about 7.5 mg of recombinant GST-TEV protease (see below) was added. The solution was incubated at 16 °C overnight to allow complete release of proghrelin8His from GST. Prior to Ni-NTA chromatography, 5 mM CaCl2 was added, and the solution was spun down at 4000× g for 10 min. After elution from Ni-NTA resin, protein solution was dialyzed against buffer containing 10 mM Tris-HCl pH 8.5, 50 mM NaCl, 10% glycerol and 0.01% CHAPS using 3 kDa cutoff membrane with 3 buffer exchanges. The protein was quantified by absorbance at A280 and qualified by SDS-PAGE.
The baculovirus expression of mouse GOAT. DH10Bac E. coli strain (ThermoFisher, Waltham, MA, USA) was transformed with pFastBac1-mouseGOAT plasmid, and Bacmid DNA from 12 white colonies was analyzed by DNA sequencing and PCR reaction. All clones were transfected to sf9 cells and level of mGOAT expression was compared between clones from cells producing P2. The clone with the highest mGOAT expression level was used to produce P3. For membrane isolation, sf9 cells were seeded at 2–4 × 10^6 /mL in total 1 L volume of sf-900 serum-free medium (ThermoFisher) and infected with P3 virus. At day 2 post-infection, cells were harvested and resuspended in 40 mL of buffer containing 50 mM NaPi pH 7.2, 150 mM NaCl, 1 mM EDTA, 100 μM bis (4-nitrophenyl) phosphate, 2.5 μg/mL aprotinin, 10 μg/mL leupeptin, 10 μg/mL pepstatin A. Cell suspension was briefly sonicated and cell debris was removed by centrifugation at 3000× g for 10 min. Membrane fraction was collected from supernatant by centrifugation at 100,000× g for 1 h. Membrane pellet was resuspended in storage buffer (50 mM NaPi pH 7.2, 150 mM NaCl and 10% glycerol) and kept at −80 °C. Acyltransferase assay: The assay conditions included per 50 μL reaction: 50 μg of total sf9 membranes, various (for modality experiment) or fixed (for IC50) concentrations of recombinant proghrelin8His peptide and various concentrations of tested compound (for IC50), 100 μM palmitoyl CoA, 50 mM HEPES pH 7.0 and 1 μM [^3H] octanoyl CoA (~5.5 dpm/fmol—American Radioactive Chemicals). After incubation of the reaction mixture at 37C for 10 min, tubes were placed on ice and 10 μL of 1M HCl was added to each tube. Following the addition of 740 μL of cold quench buffer (50 mM NaPi pH 7.4, 10 mM Imidazole, 150 mM NaCl, 100 μM bis (4-nitrophenyl) phosphate, 1 mM phenylmethylsulfonyl fluoride and 0.1% Triton), 0.2 mL of 50% Ni-NTA slurry was added to each reaction. […]

Row | IC50 | SMILES | GOAT inhibition in vitro (in words)
1 | 0.088 µM | Cc1nc(Cl)nc(N)c1CCC1CCN(C(=O)[C@H](C)NC(=O)c2ccnn2C)CC1 [compound 5] | 
2 | 0.064 µM | CNC(=O)c1cccc(Cc2c(C)nc3nonc3c2N)n1 [compound 6, reference compound] | 
3 | 0.084 µM | Cc1nc2nonc2c(N)c1CCC1CCN(C(=O)[C@H](C)NC(=O)c2ccnn2C)CC1 [compound 11, (S)-N-(1-(4-(2-(7-amino-5-methyl-[1,2,5]oxadiazolo[3,4-b]pyridin-6-yl)ethyl)pip-eridin-1-yl)-1-oxopropan-2-yl)-1-methyl-1H-pyrazole-5-carboxamide] | as potently as did 5 and 6

Row | SMILES | IC50 | GOAT inhibition in vitro (in words)
4 | CCCCOCC(=O)N1CCC(CCc2c(C)nc3nonc3c2N)CC1 [compound 10, 1-(4-(2-(7-amino-5-methyl-[1,2,5]oxadiazolo[3,4-b]pyridin-6-yl)ethyl)piperidin-1-yl)-2-butoxyethan-1-one] | 0.063 µM | as potently as did 5 and 6
